The record followed here is patent publication US12661416B2, “Combinations of imaging agent conjugates and application thereof” (Curadel Surgical Innovations, Inc., priority 2023, dated 2026).

A short description of data set [1]: In vitro stability in warm serum (normalized absorbance / absorption spectra over time). It counts as in vitro ADME. Particulars: compared to ZW800-1. The procedure:
cRGD-ZW700-1c ZW700-1c, and ZW-800-1 are shown in FIG. 1 and are characterized with respect to their optical properties and stability in vitro. Commercial NIR fluorophores, such as IRDye™800-RS (RS-800), IRDye800-CW (CW-800), Cy5.5, and Cy7 have various degrees of sulfonation in order to achieve aqueous solubility.
The normalized absorbance of ZW800-1 and ZW700-1c in 37° C. buffered FBS, pH 7.4 over time from 0 to 60 hours are shown in FIGS. 2-4.

A further data set is described as follows: Stability in serum. Format: in vitro ADME.

Take `CC1(C)C(/C=C/C(=C/C=C2/N(CCC[N+](C)(C)C)c3ccc(S(=O)(=O)[O-])cc3C2(C)C)c2ccc(CCC(=O)[O-])cc2)=[N+](CCC[N+](C)(C)C)c2ccc(S(=O)(=O)[O-])cc21` [ZW700-1c]: the “stability (normalized absorbance over time)” value in data set [1] (37° C. buffered FBS, pH 7.4, 0 to 60 hours) is recorded as “extreme stability”. In addition, the “stability over time (changes in absorption spectra during metabolism in warm serum)” value in data set [1] (warm serum) is recorded as “high stability”. As for `N=C(N)NCC[C@@H]1NC(=O)[C@H](CCCCN)NC(=O)[C@@H](Cc2ccc(O)cc2)NC(=O)[C@H](C(=O)O)NC(=O)CNC1=O` [cRGD], the stability in serum result in “Stability in serum” is given as “stable in serum for days”.
